Entries after “also recorded” stand apart in the source; their conditions may differ. Where two headings read alike, the source gives them in different places.
Assays:
[1] = test system: intestinal permeability; assay type: in vivo, mice
[2] = human, in vivo
Protocol: D-xylose is a carbon source generally preferred by anaerobic bacteria. […] A parallel, double-blind, 5 cohort escalation food safety study was conducted to examine D-xylose in normal human volunteers. The study was a double-blind, single-center, parallel group study designed to evaluate the tolerability and potential microbiome changes induced by ingestion of D-xylose at 5 different amounts in healthy, adult volunteers enrolled at 1 study center in the United States (US).
Subjects were screened for eligibility within 21 days prior to the first planned ingestion of study sweetener on Day 1 (Baseline). […]
Subjects returned to the study center weekly on Days 8, 15, 22, and 28 for ingestion, tolerability, and compliance evaluations. Safety was evaluated on a continual basis through adverse events (AE) monitoring, clinical laboratory measurements, vital sign monitoring, physical examinations, electrocardiograms (ECGs), telephone follow-up, and electronic subject ingestion diaries. Stool was collected pre-ingestion and at pre-specified time points, and post-ingestion samples were evaluated for changes in the gut microbiome compared with Baseline for all subjects. […]
Safety was evaluated on a continual basis through AE monitoring, clinical laboratory measurements, vital sign monitoring, physical examinations, ECGs, telephone follow-up, and electronic subject ingestion diaries. […]

[3] = Normal human volunteer study of D-xylose: serum CRP, serum cytokines and T-cell markers; assay type: in vivo
Excerpt: Blood was collected at pre-specified pre- and post-ingestion time points to evaluate C-reactive protein (CRP), serum cytokines (tumor necrosis factor alpha [TNF-α], interleukin [IL]-2, IL-6, interferon gamma [IFN-γ], and IL-10), and T-cell markers CD3, CD4, CD8, CD25, and FOXP3. Plasma was also stored and may be tested for biomarkers and/or metabolic markers for up to 7 years.
Summary statistics (n, mean, standard deviation, median, minimum, and maximum) were presented for serum concentrations of CRP, flow cytometry T-cell markers (CD3, CD4, CD8, CD25, and FOXP3), and cytokines (TNF-α, IL-2, IL-6, IFN-γ, and IL-10) as per their nominal time points.

[4] = test system: gut microbiome; test: Normal human volunteer study of D-xylose: changes in the gut microbiome (stool 16S sequencing); assay type: in vivo; details: for alpha diversity of the gut microbiome: over time on study
[5] = test system: microbiome of the gut; parameters: species or system C57Bl/6 female mice; details: mouse, in vivo
Excerpt: (§1) The trillions of organisms forming the microbiome function as an organ system interconnected throughout the body. The possibility that modification of the microbiome in a given physical location may influence the microbiome at other sites in the body (distal augmentation) was investigated. Seven week old C57Bl/6 female mice were acclimatized for 7 days prior to the start of the study by daily handling and shuffling between cages. All mice were housed at three mice per cage in individually vented cages (Thoren, Hazleton, Pa.). At day 0, baseline fresh fecal pellets, and vaginal lavages with 100 μL of sterile double-distilled water were collected and immediately frozen at −80° C. for microbiome analysis. […] Water alone is not expected to influence the microbiome and acted as a negative control. […] The impact of oral vancomycin is therefore expected to be limited to the gastrointestinal tract such that microbiome changes elsewhere in the body (e.g. vagina) would be attributable to distal augmentation. […]
(§2) Isolation and sequencing of microbial DNA from the stool and vaginal samples was performed by DNA Genotek (Ottawa, ON, Canada). The V3-V4 region of the 16S ribosomal subunit was amplified with custom PCR primers and sequenced on an Illumina MiSeq to a minimum acceptable read depth of 25,000 sequences per sample. […]

[6] = test system: vaginal microbiome; parameters: species or system C57Bl/6 female mice; details: mouse, in vivo, po
Excerpt: as §1, §2

[7] = in vivo; cited from earlier work
[8] = cited from earlier work
[9] = test system: human PBMCs; test: Flow cytometry of T cell populations in human PBMCs cultured with commensal bacteria; assay type: cell-based; details: compared to PBMCs alone (control); percent of CD3ε+CD4+ cells
Protocol: In order to determine whether exposure to commensal bacteria may polarize T cells toward a particular phenotype, flow cytometry analysis was performed on human PBMCs cultured with various commensal bacteria as described above. The cells recovered from culture were washed in phosphate-buffered saline and stained with a cocktail of fluorescently labeled antibodies against specific cell surface protein markers to allow for the detection of Th1 cells (CXCR3^+CCR6^−), Th2 cells (CXCR3^−CCR6^−), Th17 cells (CXCR3^+CCR6^+) and Tregs (CD25^+CD127^lo). Negative control wells contained PBMCs in culture medium alone and positive control wells contained PBMCs+LPS (100 ng/ml) as a known immune stimulus. The commensal bacteria examined inluded: Epv 1: R. gnavus; Epv 3: B. luti; Epv 2: E. rectale; Epv 5: B. wexlerae; Epv. 8: E. faecalis; Epv 20: B. obeum, ATCC 29174; Epv 21: B. product, ATCC 27340; Epv 24: B. hansenii, ATCC 27752. […] For example, the optimal T cell profile to address pro-inflammatory disorders such as GVHD would consist of ↑Treg, ↓Th17, ↓ or unchanged Th1, and ↑Th2. This phenotype was induced by many of the bacteria tested.

[10] = test system: human peripheral blood mononuclear cells (PBMCs); test: Cytokine release by human PBMCs incubated with commensal bacteria alone or in combination with E. faecalis (Luminex); assay type: cell-based; details: for ability to reduce/counteract the induction of pro-inflammatory cytokines by EPV 8 (incl. IL-6, MCP-1, IL-12p70, IFNγ): combination with EPV 8; for anti-inflammatory cytokine profile for a Th-1-driven condition such as GVHD: overall assessment, FIG. 11
[11] = bacterium alone, 24, 48 and 72 hours
[12] = Table 1, NIAID priority pathogen category, OP or N

## O=C[C@H](O)[C@@H](O)[C@H](O)CO [D-xylose]
[1]; mouse, in vivo
  basal levels of serum endotoxin: reduced these basal levels over time; also recorded: reduces basal levels of serum endotoxin
  effect of xylose on the increase in serum endotoxin level caused by cipro: appeared to counteract the increase in serum endotoxin level; also recorded: counteracts the endotoxin increase
  effect of xylose on the increase in serum endotoxin level caused by enro: but not enro
[2]
  SAEs, severe AEs, subject deaths: No SAEs, severe AEs, or subject deaths were reported
[3]; 2 g and 15 g D-xylose cohorts, FIG. 30
  levels of serum interferon gamma over time: trend for reduced levels
[3]; any ingestion amount
  total T-cells or any T-cell subsets over time: No consistent or clinically meaningful changes over time
[3]; human, in vivo
  subjects with normal serum CRP at Baseline with at least 1 post-ingestion CRP value >2.9 mg/L: 8.3%
[3]; most data points below the limit of quantitation, any ingestion amount
  serum cytokines (TNF-α, IL-2, IL-6, IFN-γ, IL-10) over time: did not indicate any consistent or clinically meaningful changes over time
[4]; normal individuals and normal mice
  changes in the gut microbiome, overall: subtle changes in the gut microbiome
[4]; regardless of ingestion amount
  community composition of the gut microbiome over time: no significant changes in community composition
  alpha diversity of the gut microbiome: no apparent significant impact
[4]; regardless of ingestion amount, listed as xylose
  alpha diversity of the gut microbiome: no major shifts in the microbiome alpha diversity
[4]; xylose TID at 1, 2, 8, 12.5 or 15 grams, FIG. 31
  Chao diversity index (community richness) over time: overall decrease

## CN[C@H](CC(C)C)C(=O)N[C@H]1C(=O)N[C@@H](CC(N)=O)C(=O)N[C@H]2C(=O)N[C@H]3C(=O)N[C@H](C(=O)N[C@H](C(=O)O)c4cc(O)cc(O)c4-c4cc3ccc4O)[C@H](O)c3ccc(c(Cl)c3)Oc3cc2cc(c3O[C@@H]2O[C@H](CO)[C@@H](O)[C@H](O)[C@H]2O[C@H]2C[C@](C)(N)[C@H](O)[C@H](C)O2)Oc2ccc(cc2Cl)[C@H]1O [Vancomycin, vancomycin]
[5]
  impact on the microbiome of the gut (PCA at the family level, fecal samples day 0 to day 6): strong impact
[6]
  day 0 to day 6 pattern in vaginal samples (PCA): overall difference between the PBS and oral vancomycin groups
[7]
  absorption from the gut after oral administration: poorly absorbed from the gut

## CCN1CCN(c2cc3c(cc2F)c(=O)c(C(=O)O)cn3C2CC2)CC1 [enro, enrofloxacin, reference compound]
[1]; 0.25 g/L in drinking water day −7 to day −2, measured 2 days after a 5 day course (day 0)
  serum endotoxin levels after antibiotic treatment: increase in serum endotoxin levels
[1]; by day 14
  serum endotoxin levels over time after antibiotic treatment: return to baseline by day 14

## Bacteroides fragilis
[8]; Table 1, OTU list, NIAID priority pathogen category, OP or N
  Pathogen Status: N

## Blautia Hansenii ATCC27752 [EPV 24]
[9]
  proportion of T cells with a regulatory phenotype (Tregs, CD25+CD127lo): greatest impact

## Blautia luti (BlnIX) [EPV 114]
[10]
  low induction of pro-inflammatory cytokines and/or positive induction of anti-inflammatory cytokines, and ability to counteract the inflammatory activity of E. faecalis (candidate criteria): meeting these criteria

## Blautia luti [EPV 3]
[10]; bacterium alone
  intrinsic inflammatory activity (induction of pro-inflammatory cytokines) compared to EPV 8: relatively low intrinsic inflammatory activity
[10]; [11]
  induction of Th1-related cytokines (IFN-γ, IL-12p70, IL-6, IL-2, TNFα): minimal induction
  induction of monocyte, macrophage and neutrophil-related inflammatory cytokines (MCP-1, MIP1β, MIP1α, RANTES, IL-1α, IL1β, IFN-α2, IL-8): least inflammatory
[10]; combination with E. faecalis
  countering the effect of E. faecalis (Epv 8) on monocyte, macrophage and neutrophil-related inflammatory cytokines: most effective
[10]; combination with E. faecalis, 24, 48 and 72 hours
  counteracting induction of Th1-related cytokines by E. faecalis (Epv 8): most effective
[10]
  ability to reduce/counteract the induction of pro-inflammatory cytokines by EPV 8 (incl. IL-6, MCP-1, IL-12p70, IFNγ): able to reduce the induction of pro-inflammatory cytokines
  anti-inflammatory cytokine profile for a Th-1-driven condition such as GVHD: significantly desirable anti-inflammatory profile; also recorded: desirable anti-inflammatory cytokine profile

## Blautia obeum [EPV 78]
[10]
  low induction of pro-inflammatory cytokines and/or positive induction of anti-inflammatory cytokines, and ability to counteract the inflammatory activity of E. faecalis (candidate criteria): meeting these criteria

## Blautia producta ATCC 27340 [EPV 21]
[9]
  proportion of T cells with a regulatory phenotype (Tregs, CD25+CD127lo): greatest impact

## Blautia wexlerae [EPV 5]
[10]; 24, 48 and 72 hours
  induction of IL-10: most potent
[10]
  ability to reduce/counteract the induction of pro-inflammatory cytokines by EPV 8 (incl. IL-6, MCP-1, IL-12p70, IFNγ): little ability to counteract
  anti-inflammatory cytokine profile for a Th-1-driven condition such as GVHD: suboptimal anti-inflammatory profile

## Clostridium glycolicum
[8]; [12]
  Pathogen Status: N

## Clostridium paraputrificum
[8]; [12]
  Pathogen Status: N

## Clostridium sordellii
[8]; [12]
  Pathogen Status: N

## Clostridium tertium
[8]; [12]
  Pathogen Status: N

## Enterococcus faecalis [EPV 8, reference compound]
[10]
  induction of Th1-related cytokines (IFN-γ, IL-12p70, IL-6, IL-2, TNFα): induced high levels
[9]
  proportion of T cells with a regulatory phenotype (Tregs, CD25+CD127lo): little or no increase
[8]; OTU of Table 1
  Pathogen Status: N

## Eubacterium rectale [EPV 2]
[10]; [11]
  induction of monocyte, macrophage and neutrophil-related inflammatory cytokines (MCP-1, MIP1β, MIP1α, RANTES, IL-1α, IL1β, IFN-α2, IL-8): least inflammatory
[10]; combination with E. faecalis
  countering the effect of E. faecalis (Epv 8) on monocyte, macrophage and neutrophil-related inflammatory cytokines: most effective

## Eubacterium rectale [EPV 35]
[10]
  low induction of pro-inflammatory cytokines and/or positive induction of anti-inflammatory cytokines, and ability to counteract the inflammatory activity of E. faecalis (candidate criteria): meeting these criteria

## Ruminococcus gnavus [EPV 1]
[10]; bacterium on its own, 24, 48 and 72 hours
  eliciting Th2 cytokines (IL-13, IL-4, IL-5): most active
[10]; in the presence of E. faecalis, 24, 48 and 72 hours
  eliciting Th2 cytokines (IL-13, IL-4, IL-5): most active
